Results reported in publication PMC9516332 (Frontiers in Oncology, 2022).
Read-outs that look alike come from different tables or passages of the source.

Key:
134 cancer cell lines [1] = test: Cell viability assay (ATPlite, 72 hours), IC50 on cancer cell line panel
AP-1060 (ETV6-NTRK3) = test: Cell viability assay; settings: read-out: IC50 in cell proliferation assay
134 cancer cell lines [2] = test system: 134 cancer cell lines
[3] = biological target: panel of 255 wild-type kinases (Homo sapiens, UniProt P31749); test: Kinase panel profiling at 1 µmol/L (MSA or IMAP), percentage inhibition; format: biochemical; settings: AKT1 kinase assay; 1 µmol/L single concentration; read-out: %-inhibition AKT1
[4] = biological target: panel of 255 wild-type kinases (Homo sapiens, UniProt P08581); test: as above; format: biochemical; settings: MET; 1 µmol/L single concentration
[5] = biological target: T1, panel of 255 wild-type kinases (Homo sapiens, UniProt Q96PF2); test: as above; format: biochemical; settings: kinase TSSK2; 1 µmol/L single concentration; read-out: %-inhibition at 1 µmol/L, TSSK2
T1 sequence (Q96PF2 1-358): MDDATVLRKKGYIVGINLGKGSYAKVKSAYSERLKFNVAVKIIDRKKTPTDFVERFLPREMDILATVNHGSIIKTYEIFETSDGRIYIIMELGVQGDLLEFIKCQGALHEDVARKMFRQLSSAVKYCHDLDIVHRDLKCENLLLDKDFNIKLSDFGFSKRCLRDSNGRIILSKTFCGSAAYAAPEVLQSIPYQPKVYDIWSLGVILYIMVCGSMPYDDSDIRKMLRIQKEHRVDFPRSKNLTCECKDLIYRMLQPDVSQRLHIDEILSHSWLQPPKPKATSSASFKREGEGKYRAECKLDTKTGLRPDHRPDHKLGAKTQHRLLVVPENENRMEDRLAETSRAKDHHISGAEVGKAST

[6] = biological target: panel of 255 wild-type kinases (Homo sapiens, UniProt Q9Y463); test: as above; format: biochemical; settings: kinase DYRK1B; 1 µmol/L single concentration; read-out: %-inhibition at 1 µmol/L, DYRK1B

COC(=O)N[C@@H](C)CNc1nccc(-c2cn(C(C)C)nc2-c2cc(Cl)cc(NS(C)(=O)=O)c2F)n1 [encorafenib]
IC50 (134 cancer cell lines [1]; Homo sapiens, NCI-H82, read-out: IC50 in cell proliferation assay, cell line NCI-H82): 1070 nM | IC50 (134 cancer cell lines [1]; Homo sapiens, NCI-H460, read-out: IC50 in cell proliferation assay, NCI-H460 cell line): 1160 nM | IC50 (134 cancer cell lines [1]; Homo sapiens, NCI-H661, read-out: IC50 in cell proliferation assay, NCI-H661 cell line): 821 nM | IC50 (134 cancer cell lines [1]; Homo sapiens, NCI-H716, read-out: IC50 in cell proliferation assay, cell line NCI-H716 (FGFR2-COL14A1)): 9560 nM | IC50 (134 cancer cell lines [1]; Homo sapiens, NCI-H1650, read-out: IC50 in cell proliferation assay, NCI-H1650 cell line (EGFR exon19del)): > 31600 nM | IC50 (134 cancer cell lines [1]; Homo sapiens, NCI-H1975, read-out: IC50 in cell proliferation assay, NCI-H1975 cell line (EGFR p.L858R + p.T790M)): 1440 nM | IC50 (134 cancer cell lines [1]; Homo sapiens, NCI-H2228, read-out: IC50 in cell proliferation assay, NCI-H2228 cell line (EML4-ALK)): 2300 nM | IC50 (134 cancer cell lines [1]; Homo sapiens, OVCAR-3, read-out: IC50 in cell proliferation assay, cell line OVCAR-3): 695 nM | IC50 (134 cancer cell lines [1]; Homo sapiens, PFSK-1, read-out: IC50 in cell proliferation assay, cell line PFSK-1): 1000 nM | IC50 (134 cancer cell lines [1]; Homo sapiens, RL95-2, read-out: IC50 in cell proliferation assay, cell line RL95-2 (EGFR p.A289V)): 924 nM | IC50 (134 cancer cell lines [1]; Homo sapiens, RPMI-7951, read-out: IC50 in cell proliferation assay, cell line RPMI-7951 (BRAF p.V600E)): 13 nM | IC50 (134 cancer cell lines [1]; Homo sapiens, RS4-11, read-out: IC50 in cell proliferation assay, cell line RS4;11): 925 nM | IC50 (134 cancer cell lines [1]; Homo sapiens, Rec1, read-out: IC50 in cell proliferation assay, cell line REC-1): 8530 nM | IC50 (134 cancer cell lines [1]; Homo sapiens, SHP77, read-out: IC50 in cell proliferation assay, cell line SHP-77): > 31600 nM | IC50 (134 cancer cell lines [1]; Homo sapiens, SK-BR-3, read-out: IC50 in cell proliferation assay, cell line SK-BR-3 (ERBB2 amplification)): > 31600 nM | IC50 (134 cancer cell lines [1]; Homo sapiens, SK-N-AS, read-out: IC50 in cell proliferation assay, cell line SK-N-AS): 1110 nM | IC50 (134 cancer cell lines [1]; Homo sapiens, SK-N-FI, read-out: IC50 in cell proliferation assay, cell line SK-N-FI): 3280 nM | IC50 (134 cancer cell lines [1]; Homo sapiens, SK-N-MC, read-out: IC50 in cell proliferation assay, cell line SK-N-MC): 976 nM | IC50 (134 cancer cell lines [1]; Homo sapiens, SK-N-SH, read-out: IC50 in cell proliferation assay, cell line SK-N-SH (ALK p.F1174L)): 1110 nM | IC50 (134 cancer cell lines [1]; Homo sapiens, SNU-5, read-out: IC50 in cell proliferation assay, cell line SNU-5 (MET amplification)): 7360 nM | IC50 (134 cancer cell lines [1]; Homo sapiens, SNU-16, read-out: IC50 in cell proliferation assay, cell line SNU-16 (FGFR2 amplification)): 1750 nM | IC50 (134 cancer cell lines [1]; Homo sapiens, SNU-C2B, read-out: IC50 in cell proliferation assay, cell line SNU-C2B (EGFR p.R165Q)): 9590 nM | IC50 (134 cancer cell lines [1]; Homo sapiens, SU-DHL-1, read-out: IC50 in cell proliferation assay, cell line SU-DHL-1 (NPM1-ALK)): 2150 nM | IC50 (134 cancer cell lines [1]; Homo sapiens, SU-DHL-6, read-out: IC50 in cell proliferation assay, cell line SU-DHL-6): 5810 nM | IC50 (134 cancer cell lines [1]; Homo sapiens, SUP-T1, read-out: IC50 in cell proliferation assay, cell line SUP-T1): > 31600 nM | IC50 (134 cancer cell lines [1]; Homo sapiens, SW48, read-out: IC50 in cell proliferation assay, cell line SW48 (EGFR p.G719S)): 2230 nM | IC50 (134 cancer cell lines [1]; Homo sapiens, SW480, read-out: IC50 in cell proliferation assay, cell line SW480): 1220 nM | IC50 (134 cancer cell lines [1]; Homo sapiens, SW626, read-out: IC50 in cell proliferation assay, cell line SW626): 2440 nM | IC50 (134 cancer cell lines [1]; Homo sapiens, SW780, read-out: IC50 in cell proliferation assay, cell line SW780 (FGFR3-BAIAP2L1)): 19800 nM | IC50 (134 cancer cell lines [1]; Homo sapiens, SW837, read-out: IC50 in cell proliferation assay, cell line SW837): > 31600 nM | IC50 (134 cancer cell lines [1]; Homo sapiens, SW872, read-out: IC50 in cell proliferation assay, cell line SW872 (BRAF p.V600E)): 7 nM | IC50 (134 cancer cell lines [1]; Homo sapiens, SW900, read-out: IC50 in cell proliferation assay, cell line SW900): 1390 nM | IC50 (134 cancer cell lines [1]; Homo sapiens, SW948, read-out: IC50 in cell proliferation assay, cell line SW948): 3230 nM | IC50 (134 cancer cell lines [1]; Homo sapiens, SW982, read-out: IC50 in cell proliferation assay, cell line SW982 (BRAF p.V600E)): 549 nM | IC50 (134 cancer cell lines [1]; Homo sapiens, SW-620, read-out: IC50 in cell proliferation assay, cell line SW620): 1810 nM | IC50 (134 cancer cell lines [1]; Homo sapiens, T98G, read-out: IC50 in cell proliferation assay, cell line T98G): 1670 nM | IC50 (134 cancer cell lines [1]; Homo sapiens, TCC-SUP, read-out: IC50 in cell proliferation assay, cell line TCCSUP): 740 nM | IC50 (134 cancer cell lines [1]; Homo sapiens, THP-1, read-out: IC50 in cell proliferation assay, cell line THP-1): 2460 nM | IC50 (134 cancer cell lines [1]; Homo sapiens, U2OS, read-out: IC50 in cell proliferation assay, cell line U2OS): 1460 nM | IC50 (134 cancer cell lines [1]; Homo sapiens, U-87 MG, read-out: IC50 in cell proliferation assay, cell line U-87MG ATCC): 1050 nM | IC50 (134 cancer cell lines [1]; Homo sapiens, U-118-MG, read-out: IC50 in cell proliferation assay, cell line U-118MG): 1410 nM | IC50 (134 cancer cell lines [1]; Homo sapiens, UMUC3, read-out: IC50 in cell proliferation assay, cell line UM-UC-3): 993 nM | IC50 (134 cancer cell lines [1]; Hs766T, read-out: IC50 in cell proliferation assay, Hs 766T cell line): 1900 nM | IC50 (134 cancer cell lines [1]; L-82, read-out: IC50 in cell proliferation assay, L-82 cell line (NPM1-ALK)): 8750 nM | IC50 (134 cancer cell lines [1]; Rh30, read-out: IC50 in cell proliferation assay, cell line Rh30): 1080 nM | IC50 (134 cancer cell lines [1]; read-out: IC50 in cell proliferation assay, 11-18 cell line (EGFR p.L858R)): > 31600 nM | IC50 (134 cancer cell lines [1]; read-out: IC50 in cell proliferation assay, Hs 852.T cell line): 3370 nM | IC50 (134 cancer cell lines [1]; read-out: IC50 in cell proliferation assay, JAR cell line): 419 nM | IC50 (134 cancer cell lines [1]; read-out: IC50 in cell proliferation assay, cell line 5637): 586 nM | IC50 (134 cancer cell lines [1]; read-out: IC50 in cell proliferation assay, cell line A-388): 2000 nM | IC50 (134 cancer cell lines [1]; read-out: IC50 in cell proliferation assay, cell line DB): 1200 nM | IC50 (134 cancer cell lines [1]; read-out: IC50 in cell proliferation assay, cell line DEL (NPM1-ALK)): 6420 nM | IC50 (134 cancer cell lines [1]; read-out: IC50 in cell proliferation assay, cell line ES-2 (BRAF p.V600E)): 100 nM | IC50 (134 cancer cell lines [1]; read-out: IC50 in cell proliferation assay, cell line PA-1): 841 nM | IC50 (134 cancer cell lines [1]; read-out: IC50 in cell proliferation assay, cell line PC-3): 1370 nM | IC50 (134 cancer cell lines [1]; read-out: IC50 in cell proliferation assay, cell line RD): 1630 nM | IC50 (134 cancer cell lines [1]; read-out: IC50 in cell proliferation assay, cell line RKO (BRAF p.V600E)): 244 nM | IC50 (134 cancer cell lines [1]; read-out: IC50 in cell proliferation assay, cell line RL): 29200 nM | IC50 (134 cancer cell lines [1]; read-out: IC50 in cell proliferation assay, cell line RT-4 (FGFR3-TACC3)): 3770 nM | IC50 (134 cancer cell lines [1]; read-out: IC50 in cell proliferation assay, cell line SR (NPM1-ALK)): 921 nM | IC50 (134 cancer cell lines [1]; read-out: IC50 in cell proliferation assay, cell line T24): 1050 nM | IC50 (134 cancer cell lines [1]; read-out: IC50 in cell proliferation assay, cell line TT (RET p.C634W)): 5090 nM | IC50 (134 cancer cell lines [1]; read-out: IC50 in cell proliferation assay, cell line VA-ES-BJ): 1130 nM | IC50 (AP-1060 (ETV6-NTRK3)): 2520 nM | IC50 (134 cancer cell lines [2]): 592 nM | inhibition at 1 µM [3]: -2% | inhibition at 1 µM [4]: 2.82% | inhibition at 1 µM [5]: -2.44% | inhibition at 1 µM [6]: -3.42%
